What was measured:
[1] = biological target: T1, Sodium-dependent dopamine transporter (Homo sapiens, UniProt Q01959); assay: GPCRScan assay: inhibition of DAT; design: radioligand conc. used [nm] 3.6 – 16.0, parental cells stable HEK
[2] = biological target: B2 bradykinin receptor (Homo sapiens) (UniProt P30411); assay: B2/HU Eurofins-Panlabs selectivity data (BI); conditions: Compound concentration 10.0 uM
[3] = biological target: T1, Sodium-dependent dopamine transporter; assay: DATRANS/H Eurofins-Panlabs selectivity data (BI); conditions: Compound concentration 10.0 uM
[4] = biological target: Endothelin-converting enzyme 1 (Homo sapiens) (UniProt P42892); assay: ECE-1 (HU) Eurofins-Panlabs selectivity data (BI); conditions: Compound concentration 10.0 uM
[5] = biological target: Acetylcholine receptor subunit alpha (Homo sapiens) (UniProt P02708); assay: NACH/H Eurofins-Panlabs selectivity data (BI); conditions: Compound concentration 10.0 uM
[6] = biological target: Thromboxane A2 receptor (Homo sapiens) (UniProt P21731); assay: PROST_A2TP Eurofins-Panlabs selectivity data (BI); conditions: Compound concentration 10.0 uM
[7] = system: Tyrosine-protein kinase ABL1 (Homo sapiens), P00519 [H396P]; conditions: Compound concentration 1000.0 nM
[8] = biological target: Tyrosine-protein kinase receptor UFO (Homo sapiens) (UniProt P30530); conditions: Compound concentration 1000.0 nM
[9] = biological target: Mitotic checkpoint serine/threonine-protein kinase BUB1 (Homo sapiens) (UniProt O43683); conditions: Compound concentration 1000.0 nM
[10] = biological target: Calcium/calmodulin-dependent protein kinase type IV (Homo sapiens) (UniProt Q16566); conditions: Compound concentration 1000.0 nM
[11] = biological target: Citron Rho-interacting kinase (Homo sapiens) (UniProt O14578); conditions: Compound concentration 1000.0 nM
Sequence of Citron Rho-interacting kinase (Homo sapiens) (O14578 whole entry): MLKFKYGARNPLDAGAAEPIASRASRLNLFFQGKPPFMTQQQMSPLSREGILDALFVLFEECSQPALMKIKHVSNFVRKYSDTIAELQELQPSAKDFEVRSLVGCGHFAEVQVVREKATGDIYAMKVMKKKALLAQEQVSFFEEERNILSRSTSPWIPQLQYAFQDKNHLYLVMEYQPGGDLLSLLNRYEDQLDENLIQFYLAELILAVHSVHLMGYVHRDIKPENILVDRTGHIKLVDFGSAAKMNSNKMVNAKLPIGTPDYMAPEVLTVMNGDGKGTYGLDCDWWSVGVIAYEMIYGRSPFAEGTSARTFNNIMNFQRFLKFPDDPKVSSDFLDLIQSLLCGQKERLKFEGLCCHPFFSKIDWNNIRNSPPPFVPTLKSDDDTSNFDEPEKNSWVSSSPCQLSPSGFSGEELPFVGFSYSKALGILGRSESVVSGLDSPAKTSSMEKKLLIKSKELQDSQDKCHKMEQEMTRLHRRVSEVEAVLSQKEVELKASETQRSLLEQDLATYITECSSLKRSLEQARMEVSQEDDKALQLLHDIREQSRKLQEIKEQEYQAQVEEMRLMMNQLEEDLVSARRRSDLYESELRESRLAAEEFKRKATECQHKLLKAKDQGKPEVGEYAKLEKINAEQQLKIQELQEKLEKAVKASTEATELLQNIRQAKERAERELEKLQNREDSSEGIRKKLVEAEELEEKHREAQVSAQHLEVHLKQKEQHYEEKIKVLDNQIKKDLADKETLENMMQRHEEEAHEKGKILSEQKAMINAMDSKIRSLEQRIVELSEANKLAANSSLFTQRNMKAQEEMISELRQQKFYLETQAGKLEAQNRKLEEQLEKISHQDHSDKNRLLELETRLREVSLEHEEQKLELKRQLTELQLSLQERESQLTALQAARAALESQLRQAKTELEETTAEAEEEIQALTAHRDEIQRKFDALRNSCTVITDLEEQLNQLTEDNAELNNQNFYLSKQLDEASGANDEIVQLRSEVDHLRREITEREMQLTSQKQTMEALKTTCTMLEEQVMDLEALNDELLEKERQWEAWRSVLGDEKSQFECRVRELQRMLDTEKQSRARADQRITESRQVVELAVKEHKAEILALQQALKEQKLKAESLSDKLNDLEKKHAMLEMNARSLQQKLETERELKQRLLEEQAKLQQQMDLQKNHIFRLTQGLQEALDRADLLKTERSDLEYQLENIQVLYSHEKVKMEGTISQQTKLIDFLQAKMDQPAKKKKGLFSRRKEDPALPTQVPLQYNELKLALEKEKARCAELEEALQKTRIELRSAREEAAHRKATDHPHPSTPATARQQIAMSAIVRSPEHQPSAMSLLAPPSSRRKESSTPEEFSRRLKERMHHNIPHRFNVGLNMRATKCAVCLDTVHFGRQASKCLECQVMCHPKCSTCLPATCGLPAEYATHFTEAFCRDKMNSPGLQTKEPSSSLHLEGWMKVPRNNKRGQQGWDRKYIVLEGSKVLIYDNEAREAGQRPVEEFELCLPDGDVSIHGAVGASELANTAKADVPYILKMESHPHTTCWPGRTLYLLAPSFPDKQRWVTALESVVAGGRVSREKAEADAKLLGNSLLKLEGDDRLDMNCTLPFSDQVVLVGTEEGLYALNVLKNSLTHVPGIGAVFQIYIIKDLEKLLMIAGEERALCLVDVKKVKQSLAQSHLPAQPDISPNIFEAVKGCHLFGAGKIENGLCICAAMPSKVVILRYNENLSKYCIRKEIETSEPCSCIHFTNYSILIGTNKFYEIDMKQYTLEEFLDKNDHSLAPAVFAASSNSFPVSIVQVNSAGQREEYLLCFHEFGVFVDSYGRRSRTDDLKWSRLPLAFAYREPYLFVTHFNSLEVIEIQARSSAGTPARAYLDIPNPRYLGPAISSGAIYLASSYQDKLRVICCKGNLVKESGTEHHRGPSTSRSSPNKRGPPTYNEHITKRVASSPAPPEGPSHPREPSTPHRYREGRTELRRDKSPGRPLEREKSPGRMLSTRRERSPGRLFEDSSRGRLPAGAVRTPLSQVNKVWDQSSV

[12] = biological target: Serine/threonine-protein kinase DCLK2 (Homo sapiens) (UniProt Q8N568); conditions: Compound concentration 1000.0 nM
[13] = system: Epidermal growth factor receptor (Homo sapiens), P00533 [G719S]; conditions: Compound concentration 1000.0 nM
[14] = system: Epidermal growth factor receptor (Homo sapiens), P00533 [UNDEFINED MUTATION]; conditions: Compound concentration 1000.0 nM
[15] = biological target: Ephrin type-A receptor 5 (Homo sapiens) (UniProt P54756); conditions: Compound concentration 1000.0 nM
[16] = biological target: Mitogen-activated protein kinase 1 (Homo sapiens) (UniProt P28482); conditions: Compound concentration 1000.0 nM
[17] = biological target: Mitogen-activated protein kinase 7 (Homo sapiens) (UniProt Q13164); conditions: Compound concentration 1000.0 nM
[18] = biological target: Tyrosine-protein kinase Fes/Fps (Homo sapiens) (UniProt P07332); conditions: Compound concentration 1000.0 nM
[19] = system: Receptor-type tyrosine-protein kinase FLT3 (Homo sapiens), P36888 [D835Y]; conditions: Compound concentration 1000.0 nM
[20] = system: Receptor-type tyrosine-protein kinase FLT3 (Homo sapiens), P36888 [N841I]; conditions: Compound concentration 1000.0 nM
[21] = biological target: Inhibitor of nuclear factor kappa-B kinase subunit beta (Homo sapiens) (UniProt O14920); conditions: Compound concentration 1000.0 nM
[22] = system: Mast/stem cell growth factor receptor Kit (Homo sapiens), P10721 [V559D,T670I]; conditions: Compound concentration 1000.0 nM
[23] = system: Mast/stem cell growth factor receptor Kit (Homo sapiens), P10721 [V559D,V654A]; conditions: Compound concentration 1000.0 nM
[24] = biological target: Leucine-rich repeat serine/threonine-protein kinase 2 (Homo sapiens) (UniProt Q5S007); conditions: Compound concentration 1000.0 nM
[25] = system: Leucine-rich repeat serine/threonine-protein kinase 2 (Homo sapiens), Q5S007 [G2019S]; conditions: Compound concentration 1000.0 nM
[26] = biological target: Mitogen-activated protein kinase kinase kinase kinase 3 (Homo sapiens) (UniProt Q8IVH8); conditions: Compound concentration 1000.0 nM
[27] = biological target: MAP kinase-activated protein kinase 5 (Homo sapiens) (UniProt Q8IW41); conditions: Compound concentration 1000.0 nM
[28] = biological target: MAP/microtubule affinity-regulating kinase 4 (Homo sapiens) (UniProt Q96L34); conditions: Compound concentration 1000.0 nM
[29] = system: Hepatocyte growth factor receptor (Homo sapiens), P08581 [M1250T]; conditions: Compound concentration 1000.0 nM
[30] = biological target: Serine/threonine-protein kinase 4 (Homo sapiens) (UniProt Q13043); conditions: Compound concentration 1000.0 nM
[31] = biological target: Cyclin-dependent kinase 18 (Homo sapiens) (UniProt Q07002); conditions: Compound concentration 1000.0 nM
[32] = biological target: Phosphatidylinositol 4,5-bisphosphate 3-kinase catalytic subunit alpha isoform (Homo sapiens) (UniProt P42336); conditions: Compound concentration 1000.0 nM
Sequence of Phosphatidylinositol 4,5-bisphosphate 3-kinase catalytic subunit alpha isoform (Homo sapiens) (P42336 whole entry, canonical isoform): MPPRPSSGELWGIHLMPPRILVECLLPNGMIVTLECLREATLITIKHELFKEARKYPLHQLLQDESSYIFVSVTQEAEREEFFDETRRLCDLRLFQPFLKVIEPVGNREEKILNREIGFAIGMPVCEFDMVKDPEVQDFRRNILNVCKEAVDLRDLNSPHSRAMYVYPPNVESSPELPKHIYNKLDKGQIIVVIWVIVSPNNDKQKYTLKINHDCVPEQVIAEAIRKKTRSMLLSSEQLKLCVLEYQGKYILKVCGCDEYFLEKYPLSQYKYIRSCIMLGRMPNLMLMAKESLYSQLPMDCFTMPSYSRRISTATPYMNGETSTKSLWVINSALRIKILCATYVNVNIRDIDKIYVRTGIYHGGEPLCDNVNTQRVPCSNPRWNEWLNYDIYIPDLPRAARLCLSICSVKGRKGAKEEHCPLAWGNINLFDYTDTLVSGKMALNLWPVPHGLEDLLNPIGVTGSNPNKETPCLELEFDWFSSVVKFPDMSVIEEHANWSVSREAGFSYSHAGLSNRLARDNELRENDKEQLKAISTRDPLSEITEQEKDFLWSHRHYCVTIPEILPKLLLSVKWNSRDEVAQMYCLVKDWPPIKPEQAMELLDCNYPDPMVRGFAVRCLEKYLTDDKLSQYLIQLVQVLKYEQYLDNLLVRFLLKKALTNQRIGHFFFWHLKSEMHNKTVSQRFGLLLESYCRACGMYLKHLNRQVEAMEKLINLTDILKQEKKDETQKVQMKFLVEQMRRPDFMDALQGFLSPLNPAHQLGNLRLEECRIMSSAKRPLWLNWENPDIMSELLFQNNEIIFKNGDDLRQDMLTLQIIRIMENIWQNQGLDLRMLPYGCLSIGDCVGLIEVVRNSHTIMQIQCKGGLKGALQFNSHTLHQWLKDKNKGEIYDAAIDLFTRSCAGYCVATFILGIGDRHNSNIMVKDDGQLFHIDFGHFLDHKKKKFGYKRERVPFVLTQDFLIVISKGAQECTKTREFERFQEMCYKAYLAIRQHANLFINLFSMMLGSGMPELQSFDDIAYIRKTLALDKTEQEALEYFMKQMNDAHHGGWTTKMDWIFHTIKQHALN

[33] = system: Phosphatidylinositol 4,5-bisphosphate 3-kinase catalytic subunit alpha isoform (Homo sapiens), P42336 [E545K]; conditions: Compound concentration 1000.0 nM
Sequence of Phosphatidylinositol 4,5-bisphosphate 3-kinase catalytic subunit alpha isoform (Homo sapiens), P42336 [E545K] (P42336 whole entry E545K, canonical isoform): as the sequence (P42336 whole entry, canonical isoform) above, with E545K counted along it

[34] = biological target: Serine/threonine-protein kinase RIO1 (Homo sapiens) (UniProt Q9BRS2); conditions: Compound concentration 1000.0 nM
[35] = biological target: Dual serine/threonine and tyrosine protein kinase (Homo sapiens) (UniProt Q6XUX3); conditions: Compound concentration 1000.0 nM
Sequence of Dual serine/threonine and tyrosine protein kinase (Homo sapiens) (Q6XUX3 whole entry): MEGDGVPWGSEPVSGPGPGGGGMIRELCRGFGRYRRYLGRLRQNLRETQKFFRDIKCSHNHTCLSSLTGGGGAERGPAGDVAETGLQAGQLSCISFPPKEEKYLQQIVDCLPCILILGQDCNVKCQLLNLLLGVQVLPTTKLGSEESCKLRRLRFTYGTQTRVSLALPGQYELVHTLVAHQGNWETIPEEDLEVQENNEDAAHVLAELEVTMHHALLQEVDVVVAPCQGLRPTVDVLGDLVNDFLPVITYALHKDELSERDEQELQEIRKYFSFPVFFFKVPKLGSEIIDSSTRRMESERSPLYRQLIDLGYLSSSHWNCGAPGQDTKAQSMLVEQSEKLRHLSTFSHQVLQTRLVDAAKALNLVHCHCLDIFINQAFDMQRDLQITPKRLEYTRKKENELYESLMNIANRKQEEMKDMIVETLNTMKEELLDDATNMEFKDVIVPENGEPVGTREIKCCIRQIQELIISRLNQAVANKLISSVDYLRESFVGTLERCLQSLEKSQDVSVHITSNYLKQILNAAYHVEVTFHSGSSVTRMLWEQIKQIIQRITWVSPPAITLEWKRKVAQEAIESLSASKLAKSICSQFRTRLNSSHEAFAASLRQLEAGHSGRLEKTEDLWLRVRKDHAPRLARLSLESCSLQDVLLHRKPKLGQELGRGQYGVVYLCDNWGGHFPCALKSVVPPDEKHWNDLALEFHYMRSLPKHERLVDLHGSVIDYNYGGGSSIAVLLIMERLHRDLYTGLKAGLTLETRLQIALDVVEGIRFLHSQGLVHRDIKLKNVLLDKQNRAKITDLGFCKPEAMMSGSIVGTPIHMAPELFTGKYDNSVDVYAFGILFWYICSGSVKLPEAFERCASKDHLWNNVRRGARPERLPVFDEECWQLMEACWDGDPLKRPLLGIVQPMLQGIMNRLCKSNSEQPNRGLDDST

[36] = biological target: Serine/threonine-protein kinase Sgk3 (Homo sapiens) (UniProt Q96BR1); conditions: Compound concentration 1000.0 nM
[37] = biological target: SNF-related serine/threonine-protein kinase (Homo sapiens) (UniProt Q9NRH2); conditions: Compound concentration 1000.0 nM
[38] = biological target: Tyrosine-protein kinase SYK (Homo sapiens) (UniProt P43405); conditions: Compound concentration 1000.0 nM
[39] = biological target: Mitogen-activated protein kinase kinase kinase 7 (Homo sapiens) (UniProt O43318); conditions: Compound concentration 1000.0 nM
[40] = biological target: Dual specificity testis-specific protein kinase 1 (Homo sapiens) (UniProt Q15569); conditions: Compound concentration 1000.0 nM
[41] = biological target: TGF-beta receptor type-1 (Homo sapiens) (UniProt P36897); conditions: Compound concentration 1000.0 nM
[42] = biological target: Non-receptor tyrosine-protein kinase TNK1 (Homo sapiens) (UniProt Q13470); conditions: Compound concentration 1000.0 nM
[43] = biological target: GABA-A receptor; anion channel (Rattus norvegicus) (UniProt O09028+P15431+P18506+P18508+P19969+P20236+P23574+P23576+P28471+P28473+P30191+P62813+P63079+P63138+Q91ZM7+Q9ES14); conditions: Compound concentration 10.0 uM

T1 sequence (Q01959 whole entry): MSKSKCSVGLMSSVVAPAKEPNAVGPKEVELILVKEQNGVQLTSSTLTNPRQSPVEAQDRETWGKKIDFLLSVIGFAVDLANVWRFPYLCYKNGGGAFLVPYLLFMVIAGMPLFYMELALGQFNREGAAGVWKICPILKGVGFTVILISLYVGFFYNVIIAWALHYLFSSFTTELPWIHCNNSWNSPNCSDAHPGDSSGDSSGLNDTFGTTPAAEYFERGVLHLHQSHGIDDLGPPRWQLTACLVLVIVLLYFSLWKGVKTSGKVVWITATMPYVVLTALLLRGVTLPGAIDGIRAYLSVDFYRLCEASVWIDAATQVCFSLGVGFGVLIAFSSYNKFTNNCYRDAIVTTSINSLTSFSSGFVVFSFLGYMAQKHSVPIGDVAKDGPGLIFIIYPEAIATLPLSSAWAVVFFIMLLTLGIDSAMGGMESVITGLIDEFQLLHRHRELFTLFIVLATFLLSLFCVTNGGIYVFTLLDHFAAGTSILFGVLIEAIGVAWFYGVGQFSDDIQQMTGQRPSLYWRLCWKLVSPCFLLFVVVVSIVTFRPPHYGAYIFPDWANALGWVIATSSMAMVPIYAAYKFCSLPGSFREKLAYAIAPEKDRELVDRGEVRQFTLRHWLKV
Sequence of B2 bradykinin receptor (Homo sapiens) (P30411 whole entry): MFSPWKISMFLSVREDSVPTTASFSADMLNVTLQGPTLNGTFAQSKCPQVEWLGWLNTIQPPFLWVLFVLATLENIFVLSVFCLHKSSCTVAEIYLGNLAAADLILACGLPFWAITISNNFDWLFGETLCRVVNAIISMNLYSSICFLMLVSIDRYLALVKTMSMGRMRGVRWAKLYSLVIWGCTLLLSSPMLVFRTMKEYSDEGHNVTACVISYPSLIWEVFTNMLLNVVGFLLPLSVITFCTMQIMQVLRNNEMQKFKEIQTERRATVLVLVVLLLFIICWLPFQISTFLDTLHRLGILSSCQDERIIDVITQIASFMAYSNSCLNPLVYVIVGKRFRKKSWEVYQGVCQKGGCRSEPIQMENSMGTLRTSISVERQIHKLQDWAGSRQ

CCOCCn1cc(C(=O)Nc2ccc(-n3nc(-c4cccnc4)cc3C(F)(F)F)cn2)ccc1=O [BI 1935]
Ki ([1]; read-out: Ki): 4.48 µM
Ki ([1]; read-out: pKi (converted)): 5.01 µM
residual activity [2]: 100%
residual activity [3]: 98%
residual activity [4]: 84%
residual activity [5]: 114%
residual activity [6]: 98%
residual activity [7]: 100%
residual activity [8]: 91%
residual activity [9]: 79%
residual activity [10]: 100%
residual activity [11]: 97%
residual activity [12]: 89%
residual activity [13]: 100%
residual activity [14]: 100%
residual activity [15]: 100%
residual activity [16]: 100%
residual activity [17]: 86%
residual activity [18]: 82%
residual activity [19]: 98%
residual activity [20]: 92%
residual activity [21]: 100%
residual activity [22]: 100%
residual activity [23]: 100%
residual activity [24]: 100%
residual activity [25]: 100%
residual activity [26]: 85%
residual activity [27]: 87%
residual activity [28]: 100%
residual activity [29]: 96%
residual activity [30]: 100%
residual activity [31]: 98%
residual activity [32]: 92%
residual activity [33]: 96%
residual activity [34]: 100%
residual activity [35]: 61%
residual activity [36]: 65%
residual activity [37]: 88%
residual activity [38]: 100%
residual activity [39]: 90%
residual activity [40]: 85%
residual activity [41]: 100%
residual activity [42]: 83%
inhibition [43]: 18.1%
